Experimental data reported in patent US20230399341A1, “7-PHENYL SUBSTITUTED 2-AMINOQUINAZOLINE INHIBITORS OF HPK1” (MERCK SHARP & DOHME LLC, priority 2020, published 2023).

Target: T1, Human HPK1, catalytic domain (Homo sapiens, UniProt Q92918)
T1 sequence (Q92918 1-346): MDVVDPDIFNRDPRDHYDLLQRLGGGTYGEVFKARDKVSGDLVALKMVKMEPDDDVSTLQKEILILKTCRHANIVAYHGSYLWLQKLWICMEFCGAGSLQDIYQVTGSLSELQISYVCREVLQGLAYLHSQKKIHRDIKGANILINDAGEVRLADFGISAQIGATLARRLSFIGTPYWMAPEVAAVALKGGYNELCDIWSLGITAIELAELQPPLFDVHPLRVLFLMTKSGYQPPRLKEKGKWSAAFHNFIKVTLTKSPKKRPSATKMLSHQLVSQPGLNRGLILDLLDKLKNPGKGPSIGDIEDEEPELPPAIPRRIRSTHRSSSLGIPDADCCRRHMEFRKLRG
Assay: HPK1-SLP76 TR-FRET Assay
Format: biochemical
Details: 75 pM HPK1, ATP 10 uM, SLP76 10 nM, 30 min pre-incubation, 60 min reaction

| Structure (SMILES) | IC50 [nM] |
| --- | --- |
| COc1cc2c(cc1Nc1ncc3ccc(N4CC(C(N)=O)C4)cc3n1)CN(C)CC2 [Compound 3-53, 1-{2-[(6-methoxy-2-methyl-1,2,3,4-tetrahydroisoquinolin-7-yl)amino]quinazolin-7-yl}-azetidine-3-carboxamide] | 669 |
| COc1cc2c(cc1Nc1ncc3ccc(-c4ccncc4)cc3n1)CNCC2 [Compound 1-46, N-(6-methoxy-1,2,3,4-tetrahydroisoquinolin-7-yl)-7-(pyridin-4-yl)quinazolin-2-amine] | 59.4 |
| COc1cc2c(cc1Nc1ncc3ccc(Oc4ccc([C@H](C)N)cc4)cc3n1)CN(C)CC2 [Compound 4-8, 7-{4-[(1S)-1-aminoethyl]-phenoxy}-N-(6-methoxy-2-methyl-1,2,3,4-tetrahydro-isoquinolin-7-yl)quinazolin-2-amine] | 2.37 |
| COc1cc2c(cc1Nc1ncc3ccc(N4C(=O)OC[C@H]4C(C)C)cc3n1)CN(C)CC2 [Compound 3-10, (4R)-3-{2-[(6-methoxy-2-meth-yl-1,2,3,4-tetrahydroisoquinolin-7-yl)amino]quinazolin-7-yl}-4-(propan-2-yl)-1,3-oxazolidin-2-one] | 107 |
| CNC(=O)c1ccc(-c2ccc3cnc(Nc4cc5c(cc4OC)CCNC5)nc3c2)cn1 [Compound 1-28, 5-{2-[(6-methoxy-1,2,3,4-tetrahydroisoquinolin-7-yl)amino]quinazolin-7-yl}-N-methylpyridine-2-carboxamide] | 198 |
| COc1cc2c(cc1Nc1ncc3ccc(-c4cccc(N5CCOCC5)c4)cc3n1)CNCC2 [Compound 1-91, N-(6-methoxy-1,2,3,4-tetrahydroisoquinolin-7-yl)-7-[3-(morpholin-4-yl)phenyl]quinazolin-2-amine] | 210 |
| COc1cc2c(cc1Nc1ncc3ccc(-c4ccc5c(c4)CCCO5)cc3n1)CNCC2 [Compound 1-75, 7-(3,4-dihydro-2H-1-benzopyran-6-yl)-N-(6-methoxy-1,2,3,4-tetrahydroisoquinolin-7-yl)quinazolin-2-amine] | 91.6 |
| COc1cc2c(cc1Nc1ncc3ccc(-c4cc(S(=O)(=O)N5CCCC5)ccc4C)cc3n1)CNCC2 [Compound 1-78, N-(6-methoxy-1,2,3,4-tetrahydroisoquinolin-7-yl)-7-{2-methyl-5-[(pyrrolidin-1-yl)sulfonyl]phenyl}quinazo-lin-2-amine] | 353 |
| COc1cc2c(cc1Nc1ncc3ccc(-c4ccc(C#N)nc4)cc3n1)CN(C)CC2 [Compound 1-103, 5-{2-[(6-methoxy-2-methyl-1,2,3,4-tetrahydroisoquinolin-7-yl)amino]quinazolin-7-yl}pyridine-2-carbonitrile] | 328 |

The next lines start with the values.

| IC50 [nM] | Structure (SMILES) |
| --- | --- |
| 90.1 | COc1cc2c(cc1Nc1ncc3ccc(NCC4(C)CCOC4)cc3n1)CN(C)CC2 (racemic) [Compound 3-75, (S and R)-N~2~-(6-methoxy-2-methyl-1,2,3,4-tetrahydroiso-quinolin-7-yl)-N~7~-[(3-meth-yloxolan-3-yl)methyl]quinaz-oline-2,7-diamine] |
| 4.08 | COc1cc(C)ccc1Nc1ncc2c(N)c(F)c(-c3cnc4c(c3C)NCCO4)cc2n1 [Compound 2-177, 6-fluoro-N~2~-(2-methoxy-4-methylphenyl)-7-(8-methyl-2,3-dihydro-1H-pyrido[2,3-b][1,4]oxazin-7-yl)quinazoline-2,5-diamine] |
| 0.0588 | COc1cc2c(cc1Nc1ncc3c(N)c(F)c(-c4cnc5c(c4C)NCCO5)c(Cl)c3n1)CN(C)CC21CC1 (single isomer, unassigned) [Compound 2-163, 8-chloro-6-fluoro-N~2~- (6′-methoxy-2′-methyl-2′,3′-dihydro-1′H-spiro[cyclopropane-1,4′-isoquinolin]-7′-yl)-7-(8-methyl-2,3-dihydro-1H-pyrido[2,3-b][1,4]oxazin-7-yl)quinazoline-2,5-diamine] |
| 6.73 | CNC(=O)c1ccc(Nc2ncc3c(N)c(F)c(-c4c(Cl)nc5c(c4C)NCCO5)c(Cl)c3n2)c(OC)c1 [Compound 2-98, (+ or −)-4-{[5-amino-8-chloro-7-(6-chloro-8-methyl-2,3-dihydro-1H-pyrido[2,3-b][1,4]oxazin-7-yl)-6-fluoroquinazolin-2-yl]amino}-3-methoxy-N-methylbenzamide] |
| 32.7 | COc1nc(C2(C#N)CC2)ccc1Nc1ncc2c(N)c(F)c(-c3cnc4c(c3C)NCCO4)c(Cl)c2n1 [Compound 2-182, (+ or −)-1-(5-{[5-amino-8-chloro-6-fluoro-7-(8-methyl-2,3-dihydro-1H-pyrido[2,3-b][1,4]oxazin-7-yl)quinazolin-2-yl]amino}-6-methoxypyridin-2-yl)cyclopropane-1-carbonitrile] |
| 0.194 | Cc1c(-c2cc3nc(Nc4ccc(CS(=O)(=O)CC(F)(F)F)cc4)ncc3c(N)c2F)cnc2c1NCCO2 [Compound 2-149, 6-fluoro-7-(8-methyl-2,3-dihydro-1H-pyrido[2,3-b][1,4]oxazin-7-yl)-N~2~- {4-[(2,2,2-trifluoroethanesulfonyl)methyl]phenyl}quinazoline-2,5-diamine] |
| 0.0379 | Cc1c(-c2cc3nc(Nc4cnc5c(c4)CN(C)CC5)ncc3c(N)c2F)cnc2c1NCCO2 [Compound 2-183, 6-fluoro-7-(8-methyl-2,3-dihydro-1H-pyrido[2,3-b][1,4]oxazin-7-yl)-N~2~- (6-methyl-5,6,7,8-tetrahydro-1,6-naphthyridin-3-yl)quinazoline-2,5-diamine] |
| 0.0134 | Cc1c(-c2c(F)c(N)c3cnc(Nc4ccc5c(c4)CN(C)CC54CC4)nc3c2Cl)cnc2c1NCCO2 (single isomer, unassigned) [Compound 2-108, (+ or −)-8-chloro-6-fluoro-N2-(2′-methyl-2′,3′-dihydro-1′H-spiro[cyclopropane-1,4′-isoquinolin]-7′-yl)-7-(8-methyl-2,3-dihydro-1H-pyrido[2,3-b][1,4]oxazin-7-yl)quinazoline-2,5-diamine] |
| 0.194 | Cc1ccncc1-c1cc2nc(Nc3ccc(CS(C)(=O)=O)cc3)ncc2c(N)c1F [Compound 2-44, 6-fluoro-7-(4-methylpyridin-3-yl)-N~2~- {4-[(methylsulfonyl)methyl]phenyl}quinazoline-2,5-diamine] |
| 189 | COc1cc2c(cc1Nc1ncc3ccc(N4CC(O)(C(F)(F)F)C4)cc3n1)CN(C)CC2 (racemic) [Compound 3-54, (S and R)-1-12-[(6-methoxy-2-methyl-1,2,3,4-tetrahydroiso-quinolin-7-yl)amino]quinazolin-7-yl}-3-(trifluoromethyl)azet-idin-3-ol] |
| 0.118 | CNS(=O)(=O)c1cccc(Nc2ncc3c(N)c(F)c(-c4cnc5c(c4C)NCCO5)cc3n2)c1 [Compound 2-34] |
| 0.0303 | Cc1c(-c2c(F)c(N)c3cnc(Nc4cc5c(cc4F)CCN(C)C5)nc3c2Cl)cnc2c1NCCO2 [Compound 2-185, (+ and −)-8-chloro-6-fluoro-N~2~-(6-fluoro-2-methyl-1,2,3,4-tetrahydroisoquinolin-7-yl)-7-(8-methyl-2,3-dihydro-1H-pyrido[2,3-b][1,4]oxazin-7-yl)quinazoline-2,5-diamine] |
| 0.22 | Cc1ccncc1-c1cc2nc(Nc3ccc4c(c3)CN(C)CC4)ncc2c(N)c1F [Compound 2-122, 6-fluoro-7-(4-methylpyridin-3-yl)-N~2~- (2-methyl-1,2,3,4-tetrahydroisoquinolin-7-yl)quinazoline-2,5-diamine] |
